Experimental data as given in article PMC7725824, “Fused isoselenazolium salts suppress breast cancer cell growth by dramatic increase in pyruvate-dependent mitochondrial ROS production” (Scientific Reports, 2020).

How the values were obtained:
MCF-7 cells = experiment: NAD+/NADH assay kit measurement; type: cell-based, human; conditions: 2 μM, 10 min, vs control
Procedure: The NAD^+/NADH ratio in the MCF-7 cells exposed to the test compounds (2 μM) for 10 min was measured using an NAD^+/NADH assay kit (Abcam, ab65348) according to the manufacturer's instructions.

[1] = Cytotoxicity assay (MTT), A7r5; type: cell-based, rat; conditions: rat, A7r5 cells (vascular smooth muscle cells), normal cell line, mean ± S.D., 3 experiments
4T1 = experiment: Cytotoxicity assay (MTT), 4T1; type: cell-based, mouse; conditions: Mus musculus, 4T1; breast cancer cell line; MTT, 48 h; mean ± S.D., 3 experiments; read-out: Cytotoxicity, IC50, 4T1
[2] = Cytotoxicity assay (MTT), MDCK; type: cell-based, Canine; conditions: dog, MDCK cells, normal cell line, mean ± S.D., 3 experiments
permeabilized 4T1 cells = experiment: High-resolution fluorespirometry (respiration and H2O2 flux); type: cell-based, mouse
Procedure: High-resolution fluorespirometry was performed using an Oxygraph-2 k system (OROBOROS INSTRUMENTS, Austria). All experiments were performed at 37 °C in MiR05 medium (110 mM sucrose, 60 mM K-lactobionate, 0.5 mM EGTA, 3 mM MgCl2, 20 mM taurine, 10 mM KH2PO4, 20 mM HEPES, pH 7.1 at 30 °C, and 0.1% BSA essentially fatty acid free). The medium was reoxygenated when the oxygen concentration dropped to 80 µM. H2O2 flux was simultaneously measured with respirometry in the O2k-Fluorometer using the H2O2-sensitive probe Ampliflu Red (AmR) as described. The H2O2/O flux ratio [%] was calculated as the H2O2 flux/(0.5 O2 flux).
In permeabilized 4T1 cells, pyruvate + malate (5 and 2 mM) or glutamate + malate (10 and 2 mM) were used to determine complex I (CI)-linked LEAK (L) respiration. ADP was added to a concentration of 5 mM to determine the oxidative phosphorylation-dependent respiration (OXPHOS state). Succinate (10 mM, complex II (CII) substrate) was then added to reconstitute convergent CI&II-linked respiration. Rotenone (0.5 µM, an inhibitor of complex I) and antimycin A (2.5 µM, an inhibitor of complex III) were added to determine the CII-linked OXPHOS capacity and residual oxygen consumption (ROX), respectively. Compound 6 was added to permeabilized cells after the addition of the respective substrates in the OXPHOS state (titration experiment) or in the LEAK state. In addition, compounds 3, 6 and 7 were tested at 1 µM in the OXPHOS coupling protocol in the LEAK state. The OXPHOS coupling efficiency was calculated as: 1-Resp.rateLEAKstate/Resp.rateOXPHOSstate
The substrate-dependent flux control factor was calculated as: 1-Resp.ratebeforeadditionofrespectivesubstrate/Resp.rateafteradditionofrespectivesubstrate

[3] = 1 µM, pyruvate-dependent OXPHOS state
[4] = titration, pyruvate + malate and glutamate + malate, OXPHOS

Which “decrease in NAD+ level” value (MCF-7 cells) does the source give for OC1(c2[se][n+]3ccsc3c2Br)CCCCC1 [Compound 6, 3-bromo-2-(1-hydroxycyclohexyl)[1,2]selenazolo[2,3-b]thiazolium chloride] here?
Its value is 25%.

What about the “decrease in NAD+/NADH ratio” value (MCF-7 cells) of the same compound?
Its value is “without affecting”.

And the “decrease in NADH level” value (MCF-7 cells)?
The value was “without affecting”.

What about the IC50 at 48 h [1] of the same compound?
Its IC50 at 48 h is 1970 ± 270 nM.

What about the IC50 (4T1) of the same compound?
The IC50 was 1700 ± 200 nM.

And the IC50 at 48 h [2]?
The IC50 at 48 h was 6.58 ± 0.33 µM.

What about the “H2O2 production and H2O2/O ratio in the CI&II-linked OXPHOS state” value (permeabilized 4T1 cells; 1 µM) of the same compound?
The value was “significant increases”.

And the OXPHOS coupling efficiency (permeabilized 4T1 cells; 1 µM)?
Its OXPHOS coupling efficiency is “significant decrease”.

What about the “respiration rate in the OXPHOS state with pyruvate and malate” value (permeabilized 4T1 cells; 1 µM) of the same compound?
Its value is “decreased”.

And the “increase in H2O2/O ratio” value (permeabilized 4T1 cells; [3])?
The value was 2.8 fold.

What about the “increase in H2O2 production” value (permeabilized 4T1 cells; [3]) of the same compound?
The value was 2.3 fold.

And the “mitochondrial function in the CII-linked OXPHOS state” value (permeabilized 4T1 cells; titration)?
The value was “no significant changes”.

And the “H2O2 production with complex I (NADH-linked) substrates” value (permeabilized 4T1 cells; [4])?
The value was “increased”.

What about the “mitochondrial respiration rate with complex I (NADH-linked) substrates” value (permeabilized 4T1 cells; [4]) of the same compound?
Its value is “inhibited”.
